Source: PubChem BioAssay AID1259407 (Chemical Carcinogenesis Research Information System (CCRIS), 2018)
Activity calls are given as the source filed them. How the calls were made is not given here.

Tested on: CCRIS mutagenicity, Ames/micronucleus/aberration tests
Assay: CCRIS mutagenicity studies
Conditions: Test System: AMES SALMONELLA TYPHIMURIUM

For O=[N+]([O-])c1cc2ccc3cccc4ccc(c1)c2c34, the mutagenic call (Strain/Indicator: TA96, Metabolic Activation: NONE, Method: STANDARD PLATE) was “active; positive”, the mutagenic call (Strain/Indicator: TA97, Metabolic Activation: NONE, Method: STANDARD PLATE) was “active; positive” and the mutagenic call (Strain/Indicator: TA98(1,8-DNP6), Metabolic Activation: NONE) was “active; positive”. The mutagenic call (Strain/Indicator: TA98(1,8-DNP6), Metabolic Activation: NONE, Method: STANDARD PLATE) was “active; positive”, the mutagenic call (Strain/Indicator: TA98(1,8-DNP6), Metabolic Activation: RAT, LIVER, S-9, AROCLOR 1254) was “inactive; negative” and the mutagenic call (Strain/Indicator: TA98(NR), Metabolic Activation: NONE) was “active; positive”. The mutagenic call (Strain/Indicator: TA98(NR), Metabolic Activation: NONE, Method: STANDARD PLATE) was “active; positive”, the mutagenic call (Strain/Indicator: TA98(NR), Metabolic Activation: RAT, LIVER, S-9, AROCLOR 1254) was “active; positive” and the mutagenic call (Strain/Indicator: TA98, Metabolic Activation: NONE) was “active; positive”. The mutagenic call (Strain/Indicator: TA98, Metabolic Activation: NONE, Method: PREINCUBATION) was “active; positive”, the mutagenic call (Strain/Indicator: TA98, Metabolic Activation: NONE, Method: STANDARD PLATE) was “active; positive” and the mutagenic call (Strain/Indicator: TA98, Metabolic Activation: RAT, LIVER, S-9, AROCLOR 1254) was “active; positive”. The mutagenic call (Strain/Indicator: TA98, Metabolic Activation: RAT, LIVER, S-9, PCB (10%), Method: PREINCUBATION) was “inactive; negative”, the mutagenic call (Strain/Indicator: TA100(NR), Metabolic Activation: NONE) was “inactive; negative” and the mutagenic call (Strain/Indicator: TA100(NR), Metabolic Activation: NONE, Method: STANDARD PLATE) was “inactive; negative”. For the same compound, the mutagenic call (Strain/Indicator: TA100(NR), Metabolic Activation: RAT, LIVER, S-9, AROCLOR 1254) was “active; positive”, the mutagenic call (Strain/Indicator: TA100, Metabolic Activation: NONE) was “active; positive” and the mutagenic call (Strain/Indicator: TA100, Metabolic Activation: NONE, Method: STANDARD PLATE) was “active; positive”. For the same compound, the mutagenic call (Strain/Indicator: TA100, Metabolic Activation: RAT, LIVER, S-9, AROCLOR 1254) was “active; positive”, the mutagenic call (Strain/Indicator: TA102, Metabolic Activation: NONE, Method: STANDARD PLATE) was “inactive; negative” and the mutagenic call (Strain/Indicator: TA104, Metabolic Activation: NONE) was “active; positive”. The mutagenic call (Strain/Indicator: TA104, Metabolic Activation: NONE, Method: STANDARD PLATE) was “active; positive”, the mutagenic call (Strain/Indicator: TA104, Metabolic Activation: RAT, LIVER, S-9, AROCLOR 1254) was “active; positive” and the mutagenic call (Strain/Indicator: TA1535, Metabolic Activation: NONE, Method: STANDARD PLATE) was “inactive; negative”. For the same compound, the mutagenic call (Strain/Indicator: TA1538, Metabolic Activation: NONE, Method: STANDARD PLATE) was “active; positive”, the mutagenic call (Strain/Indicator: TA7001, Metabolic Activation: NONE, Method: PREINCUBATION) was “active; positive” and the mutagenic call (Strain/Indicator: TA7002, Metabolic Activation: NONE, Method: PREINCUBATION) was “active; positive”. For the same compound, the mutagenic call (Strain/Indicator: TA7003, Metabolic Activation: NONE, Method: PREINCUBATION) was “active; positive”, the mutagenic call (Strain/Indicator: TA7004, Metabolic Activation: NONE, Method: PREINCUBATION) was “active; positive” and the mutagenic call (Strain/Indicator: TA7005, Metabolic Activation: NONE, Method: PREINCUBATION) was “active; positive”. For the same compound, the mutagenic call (Strain/Indicator: TA7006, Metabolic Activation: NONE, Method: PREINCUBATION) was “active; positive”.

For N[C@H](CSSC[C@@H](N)C(=O)O)C(=O)O, the mutagenic call (Strain/Indicator: TA98, Metabolic Activation: RAT LIVER S-9, CHLOROPHENE, Method: STANDARD PLATE (COMPOUND HEATED AT 250 DEGREES CELSIUS FOR 20 MIN)) was “active; positive”.

For c1ccc2cc3c(ccc4c5ccccc5ccc34)cc2c1, the mutagenic call (Strain/Indicator: TA100, Metabolic Activation: RAT, LIVER, MICROSOMES, AROCLOR 1254, Method: STANDARD PLATE) was “inactive; negative”, the mutagenic call (Strain/Indicator: TA100, Metabolic Activation: RAT, LIVER, MICROSOMES, BENZO[B]CHRYSENE, Method: STANDARD PLATE) was “inactive; negative” and the mutagenic call (Strain/Indicator: TA100, Metabolic Activation: RAT, LIVER, MICROSOMES, Method: STANDARD PLATE) was “inactive; negative”.
